According to patent publication US20250011344A1 (priority 2021, published 2025):
Several values for one entry are separate records, joined by “and”; a condition that tells them apart may be missing. Equal entries are not always repeated. Structures can show the parent of a compound that is named as a salt.

Tests used:
[1] = PO 2 mg/Kg, FIG. 15, time points other than the one quantified
[2] = PK of psilocin after a single intravenous administration in rats; details: IV 1 mg/kg nominal dose; for half-life: T½
[3] = psilocin in plasma, individual animal
[4] = psilocin in plasma, individual animal, 1 mg/kg

SMILES	Plasma concentrations of metabolite psilocin at other time points [1]	AUC(0-inf) ([2]; male, Sprague-Dawley, rat, plasma, iv, 1 mg/kg, AUCINF_obs, Mean of animals)	AUC(0-t) ([2]; male, Sprague-Dawley, rat, plasma, iv, 1 mg/kg, AUClast, Mean of animals)	Cmax ([2]; male, Sprague-Dawley, rat, plasma, iv, 1 mg/kg, Cmax, Mean of animals)	half-life ([2]; male, Sprague-Dawley, rat, plasma, iv, 1 mg/kg, Mean of animals)	half-life ([2]; male, Sprague-Dawley, rat, plasma, iv, 1 mg/kg, individual animal)	Tlast ([2]; psilocin in plasma, Mean of animals)	Tlast [2, 3]	Tmax [2, 3]	AUCINF_obs [2, 4]	AUClast [2, 4]	Cmax [2, 4]	T½ [2, 4]
CN(C)CCc1c[nH]c2cccc(OP(=O)(OC(C)(C)C)OC(C)(C)C)c12 [Di-tert-butyl [3-[2-(dimethylamino)ethyl]-1H-indol-4-yl] phosphate HCl salt]	below limit of quantification (BLQ)												
CN(C)CCc1c[nH]c2cccc(O)c12 [Psilocin, psilocin]		1580 ng·h/mL	1920 ng·h/mL	1300 ng/mL	28.7 min	24.8 min	24.00 h	24.00 h	15 min	982 ng·h/mL and 3390 ng·h/mL and 368 ng·h/mL	1340 ng·h/mL and 3780 ng·h/mL and 646 ng·h/mL	1110 ng/mL and 2450 ng/mL and 340 ng/mL	21.2 min and 40.1 min
